1 compound from patent publication US8778631B2, “Mono charging system for selectively introducing non-native amino acids into proteins using an in vitro protein synthesis system” (priority 2009, dated 2014) can be followed below.

For this test, the target named is T1, PheRS (Escherichia coli, UniProt P08312).
T1 construct: endogenous in cells; host or cells: cell-free extract (lysate) of E. coli strain KGK10
Briefly: Inhibition of the rate of cell-free synthesis of turboGFP by Phe-SA. Type of test: biochemical, E. coli. The conditions noted are these: cell-free synthesis of turboGFPY50TAG with pAF-tRNACUA^Phe. As for the experimental part: A modified “run-off procedure” was used to prepare the cell-free extract. Fermentation volume to generate sufficient cell-free extract was typically 2.5× the desired cell-free reaction volume. To inactivate the reducing activity of the cell extract, iodoacetamide (IAM) at various concentrations was added as previously described (Yang, Kanter et al. (2004) Biotechnol Prog, 20, 1689-96). Gene expression was under the control of the T7 promoter. In order to facilitate translation initiation, genes were synthesized (DNA 2.0, Menlo Park, Calif.) with synonymous codons at the 5′ end of the gene with ATG start codon (N-terminal methionine residue) optimized for mRNA instability as measured by mRNA ΔGfold in the −6 to +37 positions (Kudla, Murray et al. (2009) Science, 324, 255-258) and rare codons were replaced.
Cell-free reactions were run at 30° C. containing 8 mM magnesium glutamate, 10 mM ammonium glutamate, 130 mM potassium glutamate, 35 mM sodium pyruvate, 1.2 mM AMP, 0.86 mM each of GMP, UMP, & CMP, 2 mM amino acids (1 mM for tyrosine), 4 mM sodium oxalate, 1 mM putrescine, 1.5 mM spermidine, 15 mM potassium phosphate, 100 nM T7 RNA polymerase, 2-50 nM DNA template(s), 1-10 μM E. coli DsbC, and 24-30% (v/v) IAM-treated cell-free extract.

Molecules are shown by their SMILES.

T1 sequence (P07395 whole entry): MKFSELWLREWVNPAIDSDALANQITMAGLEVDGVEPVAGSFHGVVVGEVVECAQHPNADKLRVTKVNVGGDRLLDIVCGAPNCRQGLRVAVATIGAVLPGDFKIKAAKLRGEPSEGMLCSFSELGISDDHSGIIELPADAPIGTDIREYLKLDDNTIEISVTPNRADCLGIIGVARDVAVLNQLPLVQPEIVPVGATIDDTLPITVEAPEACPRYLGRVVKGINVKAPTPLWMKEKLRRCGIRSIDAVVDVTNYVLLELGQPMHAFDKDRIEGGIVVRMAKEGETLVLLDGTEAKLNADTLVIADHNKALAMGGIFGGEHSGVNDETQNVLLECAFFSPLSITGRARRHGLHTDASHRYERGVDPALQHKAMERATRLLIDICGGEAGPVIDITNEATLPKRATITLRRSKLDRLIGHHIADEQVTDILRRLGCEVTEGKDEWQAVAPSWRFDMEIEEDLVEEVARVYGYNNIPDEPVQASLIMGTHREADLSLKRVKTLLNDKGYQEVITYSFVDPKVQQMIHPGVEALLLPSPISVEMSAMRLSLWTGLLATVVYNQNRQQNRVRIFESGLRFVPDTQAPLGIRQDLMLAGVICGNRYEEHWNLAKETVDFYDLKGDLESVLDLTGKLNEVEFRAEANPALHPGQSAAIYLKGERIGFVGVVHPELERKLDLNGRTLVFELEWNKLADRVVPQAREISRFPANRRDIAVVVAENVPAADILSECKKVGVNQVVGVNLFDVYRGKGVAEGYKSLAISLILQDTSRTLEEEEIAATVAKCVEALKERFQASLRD
T1 sequence (P08312 whole entry): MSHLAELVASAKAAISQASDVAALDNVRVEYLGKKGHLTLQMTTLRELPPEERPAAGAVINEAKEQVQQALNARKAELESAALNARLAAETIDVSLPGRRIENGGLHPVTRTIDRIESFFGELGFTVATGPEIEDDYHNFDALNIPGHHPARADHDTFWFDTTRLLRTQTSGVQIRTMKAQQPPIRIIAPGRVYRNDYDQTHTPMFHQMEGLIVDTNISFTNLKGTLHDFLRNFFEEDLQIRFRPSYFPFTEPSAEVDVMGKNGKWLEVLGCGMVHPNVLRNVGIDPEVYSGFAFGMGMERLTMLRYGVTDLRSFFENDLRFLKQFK

As for `Nc1ncnc2c1ncn2[C@@H]1O[C@H](COS(=O)(=O)NC(=O)[C@@H](N)Cc2ccccc2)[C@@H](O)[C@H]1O` [Phe-SA, 5′-O—[N-(Phenylalanyl)sulfamoyl]adenosine], the “time after which the inhibitor begins to lose its effectiveness” value is 7 to 8 h.
